How the values were obtained:
[1] = Evaluation of light sensitivity: acid generation ratio after ArF excimer lamp exposure (Rhodamine B base colour reagent); format: physicochemical; conditions: 2.5 mM in acetonitrile with 2.5 mM Rhodamine B base; ArF excimer lamp 193 nm, 1.8 mW/cm^2, integrated amount of light 100 mJ/cm^2
Experimental: The photo-acid generators (A-1) to (A-10) of the present invention and the photo-acid generators (H-1) to (H-3) of comparative examples were each diluted with acetonitrile so that their molar concentrations would be 2.5 mM, and then Rhodamine B base (a color reagent for an acid, produced by Sigma-Aldrich) was added to the respective solutions so that the molar concentration would be 2.5 mM, yielding sample solutions.
A sample solution obtained above was put into a quartz cell having an optical path length of 1 cm and then was exposed to light under prescribed conditions using an ArF excimer lamp (center wavelength=193 nm). The absorbance near 556 nm of the respective sample solutions after exposure to light was measured with a spectrophotometer (UV-vis) because the photo-acid generator in a sample solution is decomposed upon exposure to light to generate an acid, which then reacts with Rhodamine B base and, as a result, the absorbance near 556 nm increases. Based on the absorbance at 556 nm, the molar concentration of the acid in the sample solution after exposure to light was determined using a calibration curve (standard substance: p-toluenesulfonic acid). From the acid concentration determined and the initial concentration of the photo-acid generator, the acid generation ratio was determined by the following calculation.
The acid generation ratio determined by the above-mentioned operations was judged according to the following criteria. The results are shown in Table 2. • A: 55% or more • C: less than 55% • (Light Exposure Conditions) • Photolithography machine: ArF excimer lamp (manufactured by USHIO INC.) • Illuminance (measured with a 193 nm head illuminometer): 1.8 mW/cm^2 • Integrated amount of light (measured with a 193 nm head illuminometer): 100 mJ/cm^2 <Evaluation of Solubility> (Measurement of Degree of Solubility)

[2] = Degree of solubility in propylene glycol monomethyl ether acetate (PGMEA); format: physicochemical; conditions: for Degree of solubility in PGMEA compared with Comparative Examples 1 to 3 (identical anion, different cation): versus Comparative Examples 1 to 3; for Degree of solubility (%): in propylene glycol monomethyl ether acetate (PGMEA)
Experimental: The degrees of solubility in propylene glycol monomethyl ether acetate (PGMEA) of the photo-acid generators (A-1) to (A-10) of the present invention and the photo-acid generators (H-1) to (H-3) of comparative examples were measured.
The degree of solubility determined by the above-mentioned operations was judged according to the following criteria. The results are shown in Table 2. • S: 30% or more • A: 5% or more but less than 30% • B: 1% or more but less than 5% • C: less than 1%

| Acid generation ratio (%) [1] | Degree of solubility in PGMEA compared with Comparative Examples 1 to 3 (identical anion, different cation) [2] | Degree of solubility (%) [2] | Structure (SMILES) |
| --- | --- | --- | --- |
| A (55% or more) | – | C (less than 1%) | O=S(=O)([O-])C(F)(F)F.c1ccc([S+](c2ccccc2)c2ccccc2)cc1 [H-1, Triphenylsulfonium trifluoromethanesulfonate, reference compound] |
| C (less than 55%) | – | B (1% or more but less than 5%) | Fc1ccc([S+](c2ccccc2)c2ccccc2)cc1.O=S(=O)([O-])C(F)(F)F [H-3, (4-Fluorophenyl)diphenylsulfonium trifluoromethanesulfonate, reference compound] |
| C (less than 55%) | – | B (1% or more but less than 5%) | Cc1ccc([S+](c2ccccc2)c2ccccc2)cc1.O=S(=O)([O-])C(F)(F)F [H-2, (4-Methylphenyl)diphenylsulfonium trifluoromethanesulfonate, reference compound] |

More lines, now with the values behind:

| Structure (SMILES) | Acid generation ratio (%) [1] | Degree of solubility in PGMEA compared with Comparative Examples 1 to 3 (identical anion, different cation) [2] | Degree of solubility (%) [2] |
| --- | --- | --- | --- |
| Fc1cccc([S+](c2ccccc2)c2ccccc2)c1 [A-1] | A (55% or more) | higher | A (5% or more but less than 30%) |
| FC(F)(F)c1cccc([S+](c2ccccc2)c2ccccc2)c1 [A-8] | A (55% or more) | – | S (30% or more) |
| FC(F)(F)c1cccc([S+](c2ccccc2)c2ccccc2)c1 [A-6, diphenyl-3-trifluoromethylphenylsulfonium trifluoromethane sulfonate] | A (55% or more) | higher | A (5% or more but less than 30%) |
| FC(F)(F)c1cccc([S+](c2ccccc2)c2ccccc2)c1 [A-7] | A (55% or more) | – | S (30% or more) |
| Fc1cccc([S+](c2ccccc2)c2ccccc2)c1 [A-4] | A (55% or more) | – | S (30% or more) |
| Fc1cccc([S+](c2ccccc2)c2ccccc2)c1 [A-3] | A (55% or more) | – | S (30% or more) |
| Fc1cccc([S+](c2ccccc2)c2ccccc2)c1 [A-2] | A (55% or more) | – | S (30% or more) |
| FC(F)(F)c1cccc([S+](c2ccccc2)c2ccccc2)c1 [A-9] | A (55% or more) | – | S (30% or more) |

— US9045398B2, “Sulfonium salt and photo-acid generator” (SAN-APRO LTD., priority 2013, dated 2015)
